Experimental data taken from ChEMBL document CHEMBL2424569, “Synthesis of halogenated derivatives of thymol and their antimicrobial activities” (2013).
Values after ≈ are worked out from the molar mass of the structure shown. Active and inactive are the calls of the source. The rule behind the calls is not given here.

Legend:
Type in all cases: functional
Candida albicans [1] = assay: Antifungal activity against Candida albicans CN by two-fold serial dilution assay
Candida albicans [2] = assay: Antifungal activity against Candida albicans MTCC by two-fold serial dilution assay
Candida albicans [3] = assay: Antifungal activity against Candida albicans AI by two-fold serial dilution assay
Candida albicans [4] = assay: Antifungal activity against Candida albicans CN at MIC after 7 to 10 days by disc diffusion assay
Candida albicans [5] = assay: Antifungal activity against Candida albicans MTCC at MIC after 7 to 10 days by disc diffusion assay
Candida albicans [6] = assay: Antifungal activity against Candida albicans AI at MIC after 7 to 10 days by disc diffusion assay
Klebsiella pneumoniae [7] = assay: Antibacterial activity against Klebsiella pneumoniae by two-fold serial dilution assay
Escherichia coli [8] = assay: Antibacterial activity against Escherichia coli by two-fold serial dilution assay
Streptococcus mutans [9] = assay: Antibacterial activity against Streptococcus mutans by two-fold serial dilution assay
Enterococcus faecalis [10] = assay: Antibacterial activity against Enterococcus faecalis by two-fold serial dilution assay
Klebsiella aerogenes [11] = assay: Antibacterial activity against Enterobacter aerogenes by two-fold serial dilution assay
[12] = system: Staphylococcus epidermidis; assay: Antibacterial activity against Staphylococcus epidermidis by two-fold serial dilution assay
Staphylococcus aureus [13] = assay: Antibacterial activity against Staphylococcus aureus by two-fold serial dilution assay
Klebsiella pneumoniae [14] = assay: Antibacterial activity against Klebsiella pneumoniae at MIC after 48 hrs by disc diffusion assay
Escherichia coli [15] = assay: Antibacterial activity against Escherichia coli at MIC after 48 hrs by disc diffusion assay
Streptococcus mutans [16] = assay: Antibacterial activity against Streptococcus mutans at MIC after 48 hrs by disc diffusion assay
Klebsiella aerogenes [17] = assay: Antibacterial activity against Enterobacter aerogenes at MIC after 48 hrs by disc diffusion assay
Enterococcus faecalis [18] = assay: Antibacterial activity against Enterococcus faecalis at MIC after 48 hrs by disc diffusion assay
[19] = system: Staphylococcus epidermidis; assay: Antibacterial activity against Staphylococcus epidermidis at MIC after 48 hrs by disc diffusion assay
Staphylococcus aureus [20] = assay: Antibacterial activity against Staphylococcus aureus at MIC after 48 hrs by disc diffusion assay

Cc1c(Cl)cc(C(C)C)c(O)c1Cl
Activity (Candida albicans [1]): inactive | Activity (Candida albicans [2]): inactive | Activity (Candida albicans [3]): inactive | Activity (Candida albicans [4]): inactive | Activity (Candida albicans [5]): inactive | Activity (Candida albicans [6]): inactive | Activity (Klebsiella pneumoniae [7]): inactive | Activity (Escherichia coli [8]): inactive | Activity (Streptococcus mutans [9]): inactive | Activity (Enterococcus faecalis [10]): inactive | Activity (Klebsiella aerogenes [11]): inactive | Activity [12]: inactive | Activity (Staphylococcus aureus [13]): inactive | Activity (Klebsiella pneumoniae [14]): inactive | Activity (Escherichia coli [15]): inactive | Activity (Streptococcus mutans [16]): inactive | Activity (Klebsiella aerogenes [17]): inactive | Activity (Enterococcus faecalis [18]): inactive | Activity [19]: inactive | Activity (Staphylococcus aureus [20]): inactive

COc1cc(C)c(I)cc1C(C)C
Activity (Candida albicans [1]): inactive | Activity (Candida albicans [2]): inactive | Activity (Candida albicans [3]): inactive | Activity (Candida albicans [4]): inactive | Activity (Candida albicans [5]): inactive | Activity (Candida albicans [6]): inactive | Activity (Klebsiella pneumoniae [7]): inactive | Activity (Escherichia coli [8]): inactive | Activity (Streptococcus mutans [9]): inactive | Activity (Enterococcus faecalis [10]): inactive | Activity (Klebsiella aerogenes [11]): inactive | Activity [12]: inactive | Activity (Staphylococcus aureus [13]): inactive | Activity (Klebsiella pneumoniae [14]): inactive | Activity (Escherichia coli [15]): inactive | Activity (Streptococcus mutans [16]): inactive | Activity (Klebsiella aerogenes [17]): inactive | Activity (Enterococcus faecalis [18]): inactive | Activity [19]: inactive | Activity (Staphylococcus aureus [20]): inactive

Cc1c(Cl)cc(C(C)C)c(O)c1Br
Activity (Candida albicans [1]): inactive | Activity (Candida albicans [2]): inactive | Activity (Candida albicans [3]): inactive | Activity (Candida albicans [4]): inactive | Activity (Candida albicans [5]): inactive | Activity (Candida albicans [6]): inactive | Activity (Klebsiella pneumoniae [7]): inactive | Activity (Escherichia coli [8]): inactive | Activity (Streptococcus mutans [9]): inactive | Activity (Enterococcus faecalis [10]): inactive | Activity (Klebsiella aerogenes [11]): inactive | Activity [12]: inactive | Activity (Staphylococcus aureus [13]): inactive | Activity (Klebsiella pneumoniae [14]): inactive | Activity (Escherichia coli [15]): inactive | Activity (Streptococcus mutans [16]): inactive | Activity (Klebsiella aerogenes [17]): inactive | Activity (Enterococcus faecalis [18]): inactive | Activity [19]: inactive | Activity (Staphylococcus aureus [20]): inactive

CN[C@@H]1[C@H](O[C@H]2[C@H](O[C@H]3[C@H](O)[C@@H](O)[C@H](N=C(N)N)[C@@H](O)[C@@H]3N=C(N)N)O[C@@H](C)[C@]2(O)C=O)O[C@@H](CO)[C@H](O)[C@H]1O [STREPTOMYCIN]
MIC (Klebsiella pneumoniae [7]): 2.71 µg/mL (≈ 4.66 µM) | MIC (Escherichia coli [8]): 1.35 µg/mL (≈ 2.32 µM) | MIC (Streptococcus mutans [9]): 6.35 µg/mL (≈ 10.9 µM) | MIC (Enterococcus faecalis [10]): 0.36 µg/mL (≈ 0.619 µM) | MIC (Klebsiella aerogenes [11]): 2.71 µg/mL (≈ 4.66 µM) | MIC [12]: 6.35 µg/mL (≈ 10.9 µM) | MIC (Staphylococcus aureus [13]): 12.5 µg/mL (≈ 21.5 µM) | inhibition zone (IZ) (Klebsiella pneumoniae [14]): 9 mm | inhibition zone (IZ) (Escherichia coli [15]): 9 mm | inhibition zone (IZ) (Streptococcus mutans [16]): 13 mm | inhibition zone (IZ) (Klebsiella aerogenes [17]): 10 mm | inhibition zone (IZ) (Enterococcus faecalis [18]): 10 mm | inhibition zone (IZ) [19]: 9 mm | inhibition zone (IZ) (Staphylococcus aureus [20]): 9 mm

Cc1ccc(C(C)C)c(O)c1 [THYMOL]
MIC (Candida albicans [1]): 100 µg/mL (≈ 666 µM) | MIC (Candida albicans [2]): 100 µg/mL (≈ 666 µM) | MIC (Candida albicans [3]): 100 µg/mL (≈ 666 µM) | inhibition zone (IZ) (Candida albicans [4]): 6 mm | inhibition zone (IZ) (Candida albicans [5]): 8 mm | inhibition zone (IZ) (Candida albicans [6]): 5 mm | MIC (Klebsiella pneumoniae [7]): 250 µg/mL (≈ 1660 µM) | MIC (Escherichia coli [8]): 100 µg/mL (≈ 666 µM) | MIC (Streptococcus mutans [9]): 62.5 µg/mL (≈ 416 µM) | MIC (Enterococcus faecalis [10]): 62.5 µg/mL (≈ 416 µM) | MIC (Klebsiella aerogenes [11]): 125 µg/mL (≈ 832 µM) | MIC [12]: 32.2 µg/mL (≈ 215 µM) | MIC (Staphylococcus aureus [13]): 125 µg/mL (≈ 832 µM) | inhibition zone (IZ) (Klebsiella pneumoniae [14]): 6 mm | inhibition zone (IZ) (Escherichia coli [15]): 3 mm | inhibition zone (IZ) (Streptococcus mutans [16]): 11 mm | inhibition zone (IZ) (Klebsiella aerogenes [17]): 8 mm | inhibition zone (IZ) (Enterococcus faecalis [18]): 10 mm | inhibition zone (IZ) [19]: 18 mm | inhibition zone (IZ) (Staphylococcus aureus [20]): 12 mm

Cc1cc(O)c(C(C)C)cc1Cl [CHLOROTHYMOL]
MIC (Candida albicans [1]): 100 µg/mL (≈ 542 µM) | MIC (Candida albicans [2]): 100 µg/mL (≈ 542 µM) | MIC (Candida albicans [3]): 100 µg/mL (≈ 542 µM) | inhibition zone (IZ) (Candida albicans [4]): 10 mm | inhibition zone (IZ) (Candida albicans [5]): 20 mm | inhibition zone (IZ) (Candida albicans [6]): 30 mm | MIC [12]: 25 µg/mL (≈ 135 µM) | MIC (Staphylococcus aureus [13]): 12.5 µg/mL (≈ 67.7 µM) | inhibition zone (IZ) [19]: 6 mm | inhibition zone (IZ) (Staphylococcus aureus [20]): 5 mm

Cc1c(Br)cc(C(C)C)c(O)c1Br
Activity (Candida albicans [1]): inactive | Activity (Candida albicans [2]): inactive | Activity (Candida albicans [3]): inactive | Activity (Candida albicans [4]): inactive | Activity (Candida albicans [5]): inactive | Activity (Candida albicans [6]): inactive | MIC [12]: 1000 µg/mL (≈ 3250 µM) | MIC (Staphylococcus aureus [13]): 250 µg/mL (≈ 812 µM) | inhibition zone (IZ) [19]: 16 mm | inhibition zone (IZ) (Staphylococcus aureus [20]): 13 mm

C[C@@H]1[C@H](O)[C@@H](C)/C=C/C=C/C=C/C=C/C=C/C=C/C=C/[C@H](O[C@@H]2O[C@H](C)[C@@H](O)[C@H](N)[C@@H]2O)C[C@@H]2O[C@](O)(C[C@@H](O)C[C@@H](O)[C@H](O)CC[C@@H](O)C[C@@H](O)CC(=O)O[C@H]1C)C[C@H](O)[C@H]2C(=O)O [AMPHOTERICIN B]
MIC (Candida albicans [1]): 100 µg/mL (≈ 108 µM) | MIC (Candida albicans [2]): 100 µg/mL (≈ 108 µM) | MIC (Candida albicans [3]): 100 µg/mL (≈ 108 µM) | inhibition zone (IZ) (Candida albicans [4]): 10 mm | inhibition zone (IZ) (Candida albicans [5]): 20 mm | inhibition zone (IZ) (Candida albicans [6]): 30 mm

COc1cc(C)ccc1C(C)C
Activity (Candida albicans [1]): inactive | Activity (Candida albicans [2]): inactive | Activity (Candida albicans [3]): inactive | Activity (Candida albicans [4]): inactive | Activity (Candida albicans [5]): inactive | Activity (Candida albicans [6]): inactive | Activity (Klebsiella pneumoniae [7]): inactive | Activity (Escherichia coli [8]): inactive | Activity (Streptococcus mutans [9]): inactive | Activity (Enterococcus faecalis [10]): inactive | Activity (Klebsiella aerogenes [11]): inactive | Activity [12]: inactive | Activity (Staphylococcus aureus [13]): inactive | Activity (Klebsiella pneumoniae [14]): inactive | Activity (Escherichia coli [15]): inactive | Activity (Streptococcus mutans [16]): inactive | Activity (Klebsiella aerogenes [17]): inactive | Activity (Enterococcus faecalis [18]): inactive | Activity [19]: inactive | Activity (Staphylococcus aureus [20]): inactive

Cc1ccc(C(C)C)c(O)c1Br
Activity (Candida albicans [1]): inactive | Activity (Candida albicans [2]): inactive | Activity (Candida albicans [3]): inactive | Activity (Candida albicans [4]): inactive | Activity (Candida albicans [5]): inactive | Activity (Candida albicans [6]): inactive | MIC (Streptococcus mutans [9]): 125 µg/mL (≈ 546 µM) | MIC (Klebsiella aerogenes [11]): 100 µg/mL (≈ 436 µM) | inhibition zone (IZ) (Streptococcus mutans [16]): 3 mm | inhibition zone (IZ) (Klebsiella aerogenes [17]): 2 mm

COc1c(C(C)C)ccc(C)c1Br
Activity (Candida albicans [1]): inactive | Activity (Candida albicans [2]): inactive | Activity (Candida albicans [3]): inactive | Activity (Candida albicans [4]): inactive | Activity (Candida albicans [5]): inactive | Activity (Candida albicans [6]): inactive | Activity (Klebsiella pneumoniae [7]): inactive | Activity (Escherichia coli [8]): inactive | Activity (Streptococcus mutans [9]): inactive | Activity (Enterococcus faecalis [10]): inactive | Activity (Klebsiella aerogenes [11]): inactive | Activity [12]: inactive | Activity (Staphylococcus aureus [13]): inactive | Activity (Klebsiella pneumoniae [14]): inactive | Activity (Escherichia coli [15]): inactive | Activity (Streptococcus mutans [16]): inactive | Activity (Klebsiella aerogenes [17]): inactive | Activity (Enterococcus faecalis [18]): inactive | Activity [19]: inactive | Activity (Staphylococcus aureus [20]): inactive
